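Following 48 hours of exposure in 96-well plates, responses at five concentrations were used to interpolate endpoints linearly. TGI: concentration producing complete growth inhibition.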
Tests used:
Test in all cases: growth of human tumour cells (NCI), 48 h
[1] = system: SN12C renal
[2] = system: OVCAR-3 ovarian
[3] = system: MALME-3M melanoma
[4] = system: SK-MEL-5 melanoma
[5] = system: NCI-H460 lung
[6] = system: HT29 colon
[7] = system: SNB-19 CNS
[8] = system: OVCAR-4 ovarian
[9] = system: UO-31 renal
[10] = system: SW-620 colon
[11] = system: MOLT-4 leukemia
[12] = system: SF-268 CNS
[13] = system: NCI-H23 lung
[14] = system: OVCAR-8 ovarian
[15] = system: SF-295 CNS
[16] = system: PC-3 prostate
[17] = system: MDA-MB-435
[18] = system: MDA-N
[19] = system: T-47D breast

Compound	TGI [1]	TGI [2]	TGI [3]	TGI [4]	TGI [5]	TGI [6]	TGI [7]	TGI [8]	TGI [9]	TGI [10]	TGI [11]	TGI [12]	TGI [13]	TGI [14]	TGI [15]	TGI [16]	TGI [17]	TGI [18]	TGI [19]
O/N=C/c1ncccc1C1OCCO1	> 100 µM	> 100 µM	> 100 µM	> 100 µM	> 100 µM	> 100 µM	> 100 µM	> 100 µM	> 100 µM	> 100 µM	> 100 µM	> 100 µM	> 100 µM	> 100 µM	> 100 µM	–	–	–	–
CCOCc1c(C)cc(C)c(C2C(C(=O)c3ccccc3)N3c4ccccc4C=CC3C2(C#N)C(=O)OCC)c1C (stereo unspecified)	> 100 µM	> 100 µM	–	33.2 µM	> 100 µM	> 100 µM	> 100 µM	> 100 µM	> 100 µM	> 100 µM	> 100 µM	> 100 µM	> 100 µM	–	> 100 µM	> 100 µM	> 100 µM	87 µM	–
CC(=O)Oc1cc(Cl)c(C)c2c1[C@H]1CC[C@]3(C)[C@@H](OC(C)=O)CC[C@H]3[C@@H]1CC2	> 100 µM	> 100 µM	> 100 µM	> 100 µM	> 100 µM	> 100 µM	> 100 µM	–	> 100 µM	> 100 µM	> 100 µM	> 100 µM	> 100 µM	> 100 µM	> 100 µM	–	> 100 µM	> 100 µM	> 100 µM
Oc1c2cc(Cl)cc1COCc1cc(Cl)cc(c1O)COCc1cc(Cl)cc(c1O)COC2	–	> 100 µM	–	> 100 µM	> 100 µM	–	> 100 µM	> 100 µM	> 100 µM	> 100 µM	–	–	98.6 µM	32.9 µM	> 100 µM	> 100 µM	> 100 µM	–	> 100 µM
NCCCCC(NC(=O)C(N)Cc1ccc(O)cn1)C(=O)O (stereo unspecified)	> 100 µM	> 100 µM	> 100 µM	> 100 µM	> 100 µM	> 100 µM	> 100 µM	> 100 µM	> 100 µM	> 100 µM	> 100 µM	> 100 µM	> 100 µM	> 100 µM	> 100 µM	> 100 µM	> 100 µM	> 100 µM	–
CC1OC(OC2C(OC(=O)[C@]34CCC(C)(C)CC3C3=CCC5[C@@]6(C)C[C@H](O)[C@H](OC7OC(CO)C(O)C(O)C7N)[C@@](C)(C(=O)O)C6CC[C@@]5(C)C3(C)CC4)OCC(O)C2O)C(O)C(O)C1OC1OCC(O)C(O)C1O (stereo partly specified)	> 100 µM	> 100 µM	> 100 µM	> 100 µM	> 100 µM	> 100 µM	> 100 µM	–	> 100 µM	> 100 µM	> 100 µM	> 100 µM	> 100 µM	> 100 µM	> 100 µM	–	–	–	–
C=C1[C@H](OC(C)=O)[C@H]2[C@@H](OC(C)=O)[C@@H](C)C[C@]2(C)C(=O)[C@H](C)/C=C/C(C)(C)C(=O)[C@H](OCC(C)C)[C@H]1OC(C)=O	> 25 µM	> 25 µM	–	> 25 µM	> 25 µM	–	> 25 µM	> 25 µM	> 25 µM	> 25 µM	> 25 µM	> 25 µM	> 25 µM	> 25 µM	> 25 µM	> 25 µM	> 25 µM	> 25 µM	> 25 µM
O=C(Cn1c2c(c3ccccc31)CCCC2)N1CCCC1	> 100 µM	> 100 µM	> 100 µM	> 100 µM	> 100 µM	> 100 µM	> 100 µM	73.3 µM	> 100 µM	> 100 µM	–	–	> 100 µM	> 100 µM	> 100 µM	> 100 µM	> 100 µM	> 100 µM	–
Cc1cccc(C(C)C)c1NC(=O)/C(Cc1c([N+](=O)[O-])cccc1[N+](=O)[O-])=N/NC(=O)CC#N	–	> 100 µM	> 100 µM	> 100 µM	> 100 µM	> 100 µM	> 100 µM	–	> 100 µM	> 100 µM	> 100 µM	> 100 µM	–	–	> 100 µM	–	–	–	–
O=c1[nH]c(=O)n(CCOc2ccccc2)cc1Nc1ccccc1	> 100 µM	> 100 µM	> 100 µM	> 100 µM	> 100 µM	> 100 µM	> 100 µM	–	> 100 µM	> 100 µM	> 100 µM	> 100 µM	> 100 µM	–	> 100 µM	> 100 µM	> 100 µM	> 100 µM	–
NC(=S)N1N=C2c3ccccc3CC[C@@H]2[C@@H]1c1ccccc1	17.3 µM	12.7 µM	66.7 µM	27.1 µM	> 42.2 µM	15.6 µM	> 100 µM	> 100 µM	> 94.6 µM	> 59.3 µM	48 µM	49.5 µM	19 µM	72.3 µM	> 42.2 µM	–	–	–	–
CC(C)(C)OC(=O)CN1C(=O)CC1CC(=O)c1ccccc1 (stereo unspecified)	51.1 µM	33.5 µM	31.9 µM	33.1 µM	77.1 µM	37.4 µM	41.9 µM	> 100 µM	31.4 µM	31.6 µM	25.3 µM	37.7 µM	36.5 µM	32.6 µM	73.8 µM	30.9 µM	41.2 µM	42.2 µM	–
O=[N+]([O-])c1ccc2c(c1)S(=O)(=O)N1Cc3ccccc3CCN21	> 100 µM	> 100 µM	> 100 µM	> 100 µM	> 100 µM	> 100 µM	> 100 µM	> 100 µM	> 100 µM	> 100 µM	> 100 µM	> 100 µM	> 100 µM	> 100 µM	> 100 µM	> 100 µM	> 100 µM	–	–
CC(=O)N(C(C)=O)n1c(Cc2ccc(Cl)cc2)n[nH]c1=O	> 100 µM	> 100 µM	> 100 µM	> 100 µM	> 100 µM	> 100 µM	> 100 µM	> 100 µM	> 100 µM	> 100 µM	> 100 µM	> 100 µM	> 100 µM	> 100 µM	> 100 µM	> 100 µM	> 100 µM	> 100 µM	–
